Source: patent publication US20210254056A1, “IDENTIFICATION AND TARGETED MODULATION OF GENE SIGNALING NETWORKS” (CAMP4 THERAPEUTICS CORPORATION, priority 2017, published 2021)

Test system: hepatocytes
Assay: RNA-seq of hepatocytes treated with Phase III failure compounds
Protocol: RNA-seq was performed to determine the effects of the compounds on hepatocytes.
Significance was determined by the criteria of FPKM≥0.5, a log 2(fold-change)≥1, and a […].

## CCC(CC)[C@H](NC(C)=O)[C@@H]1[C@H](O)[C@@H](C(=O)O)C[C@H]1NC(=N)N.O.O.O [peramivir (trihydrate), peramivir]
PFKM expression in hepatocytes
  RNA-seq results, gene PFKM: 0.02
PGM1 expression in hepatocytes
  RNA-seq results, gene PGM1: 0.01
PHGDH expression in hepatocytes
  RNA-seq results, gene PHGDH: 0.67
PHKA1 expression in hepatocytes
  RNA-seq results, gene PHKA1: 0.42
PHKA2 expression in hepatocytes
  RNA-seq results, gene PHKA2: −0.03
PHKB expression in hepatocytes
  RNA-seq results, gene PHKB: −0.06
PHYH expression in hepatocytes
  RNA-seq results, gene PHYH: −0.05
PIEZO1 expression in hepatocytes
  RNA-seq results, gene PIEZO1: 0.08
PIGA expression in hepatocytes
  RNA-seq results, gene PIGA: −0.01
PIGM expression in hepatocytes
  RNA-seq results, gene PIGM: 0.04
PKD1 expression in hepatocytes
  RNA-seq results, gene PKD1: 0.39
PKD2 expression in hepatocytes
  RNA-seq results, gene PKD2: −0.13
PKHD1 expression in hepatocytes
  RNA-seq results, gene PKHD1: −0.79
PKLR expression in hepatocytes
  RNA-seq results, gene PKLR: 0.01
PLA2G6 expression in hepatocytes
  RNA-seq results, gene PLA2G6: 0.31
PLEKHM1 expression in hepatocytes
  RNA-seq results, gene PLEKHM1: 0.52
PMVK expression in hepatocytes
  RNA-seq results, gene PMVK: 0.33
PNP expression in hepatocytes
  RNA-seq results, gene PNP: 0.05
PNPLA2 expression in hepatocytes
  RNA-seq results, gene PNPLA2: 0.19
RNA-seq, q≤0.05, hepatocytes, genes in the value or listed in the block
  significant modulation of expression of disease genes: significantly (q≤0.05) modulate expression of RMRP
Gene A1BG, hepatocytes
  RNA-seq results: A1BG expression: 0.02
Gene AARS2, hepatocytes
  RNA-seq results: AARS2 expression: 0.27
Gene AASS, hepatocytes
  RNA-seq results: AASS expression: −0.12
Gene ABAT, hepatocytes
  RNA-seq results: ABAT expression: −0.09
Gene ABCA1, hepatocytes
  RNA-seq results: ABCA1 expression: −0.04
Gene ABCB4, hepatocytes
  RNA-seq results: ABCB4 expression: 0.01
Gene ABCB11, hepatocytes
  RNA-seq results: ABCB11 expression: 0.20
Gene ABCC2, hepatocytes
  RNA-seq results: ABCC2 expression: 0.02
Gene ABCC3, hepatocytes
  RNA-seq results: ABCC3 expression: 0.32
Gene ABCC6, hepatocytes
  RNA-seq results: ABCC6 expression: 0.47
Gene ABCD1, hepatocytes
  RNA-seq results: ABCD1 expression: 0.25
Gene ABCD3, hepatocytes
  RNA-seq results: ABCD3 expression: −0.28
Gene ABCG5, hepatocytes
  RNA-seq results: ABCG5 expression: 0.09
Gene ABCG8, hepatocytes
  RNA-seq results: ABCG8 expression: 0.06
Gene ABHD5, hepatocytes
  RNA-seq results: ABHD5 expression: −0.22
Gene ACACA, hepatocytes
  RNA-seq results: ACACA expression: 0.04
Gene ACACB, hepatocytes
  RNA-seq results: ACACB expression: 0.36
Gene ACAD9, hepatocytes
  RNA-seq results: ACAD9 expression: 0.00
Gene ACADSB, hepatocytes
  RNA-seq results: ACADSB expression: −0.29
Gene ACADVL, hepatocytes
  RNA-seq results: ACADVL expression: 0.30
Gene ACOT8, hepatocytes
  RNA-seq results: ACOT8 expression: −0.13
Gene ACOX2, hepatocytes
  RNA-seq results: ACOX2 expression: −0.03
Gene ACOX3, hepatocytes
  RNA-seq results: ACOX3 expression: −0.01
Gene ACSF3, hepatocytes
  RNA-seq results: ACSF3 expression: 0.08
Gene ACSL1, hepatocytes
  RNA-seq results: ACSL1 expression: −0.03
Gene ACSL3, hepatocytes
  RNA-seq results: ACSL3 expression: −0.34
Gene ACTG2, hepatocytes
  RNA-seq results: ACTG2 expression: −1.66
Gene ACTN1, hepatocytes
  RNA-seq results: ACTN1 expression: −0.03
Gene ADA, hepatocytes
  RNA-seq results: ADA expression: 0.16
Gene ADCK3, hepatocytes
  RNA-seq results: ADCK3 expression: −0.02
Gene ADK, hepatocytes
  RNA-seq results: ADK expression: −0.46
Gene ADSL, hepatocytes
  RNA-seq results: ADSL expression: −0.36
Gene AFP, hepatocytes
  RNA-seq results: AFP expression: −0.31
Gene AGK, hepatocytes
  RNA-seq results: AGK expression: −0.24
Gene AGL, hepatocytes
  RNA-seq results: AGL expression: −0.20
Gene AGPAT2, hepatocytes
  RNA-seq results: AGPAT2 expression: 0.36
Gene AGPS, hepatocytes
  RNA-seq results: AGPS expression: −0.31
Gene AGT, hepatocytes
  RNA-seq results: AGT expression: −0.08
Gene AGTR1, hepatocytes
  RNA-seq results: AGTR1 expression: −0.40
Gene AGXT, hepatocytes
  RNA-seq results: AGXT expression: 0.44
Gene AHI1, hepatocytes
  RNA-seq results: AHI1 expression: −0.18
Gene AHSG, hepatocytes
  RNA-seq results: AHSG expression: 0.03
Gene AK1, hepatocytes
  RNA-seq results: AK1 expression: −0.06
Gene AKR1C1, hepatocytes
  RNA-seq results: AKR1C1 expression: −0.24
Gene AKR1C2, hepatocytes
  RNA-seq results: AKR1C2 expression: 0.07
Gene AKR1C4, hepatocytes
  RNA-seq results: AKR1C4 expression: −0.41
Gene AKR1D1, hepatocytes
  RNA-seq results: AKR1D1 expression: −0.04
Gene ALAD, hepatocytes
  RNA-seq results: ALAD expression: 0.07
Gene ALAS1, hepatocytes
  RNA-seq results: ALAS1 expression: −0.13
Gene ALDH1B1, hepatocytes
  RNA-seq results: ALDH1B1 expression: 0.10
Gene ALDH2, hepatocytes
  RNA-seq results: ALDH2 expression: 0.07
Gene ALDH6A1, hepatocytes
  RNA-seq results: ALDH6A1 expression: −0.48
Gene ALDOA, hepatocytes
  RNA-seq results: ALDOA expression: 0.01
Gene ALDOB, hepatocytes
  RNA-seq results: ALDOB expression: −0.08
Gene ALG12, hepatocytes
  RNA-seq results: ALG12 expression: 0.02
Gene ALMS1, hepatocytes
  RNA-seq results: ALMS1 expression: −0.05
Gene ALPL, hepatocytes
  RNA-seq results: ALPL expression: −0.08
Gene AMACR, hepatocytes
  RNA-seq results: AMACR expression: −0.17
Gene AMPD3, hepatocytes
  RNA-seq results: AMPD3 expression: 0.13
Gene AMT, hepatocytes
  RNA-seq results: AMT expression: 0.24
Gene ANGPTL3, hepatocytes
  RNA-seq results: ANGPTL3 expression: −0.42
Gene ANKS4B, hepatocytes
  RNA-seq results: ANKS4B expression: −0.06
Gene ANKS6, hepatocytes
  RNA-seq results: ANKS6 expression: 0.15
Gene ANPEP, hepatocytes
  RNA-seq results: ANPEP expression: 0.07
Gene AOC2, hepatocytes
  RNA-seq results: AOC2 expression: 0.42
Gene AP3B1, hepatocytes
  RNA-seq results: AP3B1 expression: −0.40
Gene APC, hepatocytes
  RNA-seq results: APC expression: −0.20
Gene APOA1, hepatocytes
  RNA-seq results: APOA1 expression: −0.02
Gene APOA2, hepatocytes
  RNA-seq results: APOA2 expression: −0.52
Gene APOA5, hepatocytes
  RNA-seq results: APOA5 expression: 0.13
Gene APOB, hepatocytes
  RNA-seq results: APOB expression: −0.10
Gene APOC2, hepatocytes
  RNA-seq results: APOC2 expression: −0.17
Gene APOC3, hepatocytes
  RNA-seq results: APOC3 expression: −0.06
Gene APOE, hepatocytes
  RNA-seq results: APOE expression: 0.04
Gene APRT, hepatocytes
  RNA-seq results: APRT expression: 0.23
Gene AQP7, hepatocytes
  RNA-seq results: AQP7 expression: −0.41
Gene AQP9, hepatocytes
  RNA-seq results: AQP9 expression: −0.29
Gene ARG1, hepatocytes
  RNA-seq results: ARG1 expression: 0.02
Gene ARG2, hepatocytes
  RNA-seq results: ARG2 expression: −0.34
Gene ARL13B, hepatocytes
  RNA-seq results: ARL13B expression: −0.24
Gene ARSA, hepatocytes
  RNA-seq results: ARSA expression: 0.49
Gene ARSB, hepatocytes
  RNA-seq results: ARSB expression: 0.03
Gene ASL, hepatocytes
  RNA-seq results: ASL expression: 0.25
Gene ASNS, hepatocytes
  RNA-seq results: ASNS expression: −0.22
Gene ASPA, hepatocytes
  RNA-seq results: ASPA expression: −0.10
Gene ASXL1, hepatocytes
  RNA-seq results: ASXL1 expression: 0.09
Gene ATG7, hepatocytes
  RNA-seq results: ATG7 expression: −0.05
Gene ATIC, hepatocytes
  RNA-seq results: ATIC expression: −0.26
Gene ATM, hepatocytes
  RNA-seq results: ATM expression: 0.16
Gene ATP7A, hepatocytes
  RNA-seq results: ATP7A expression: −0.27
Gene ATP7B, hepatocytes
  RNA-seq results: ATP7B expression: 0.00
Gene ATP8B1, hepatocytes
  RNA-seq results: ATP8B1 expression: −0.26
Gene B2M, hepatocytes
  RNA-seq results: B2M expression: −0.52
Gene B9D2, hepatocytes
  RNA-seq results: B9D2 expression: 0.35
Gene BAAT, hepatocytes
  RNA-seq results: BAAT expression: −0.23
Gene BBOX1, hepatocytes
  RNA-seq results: BBOX1 expression: −0.71
Gene BBS10, hepatocytes
  RNA-seq results: BBS10 expression: −0.36
Gene BCHE, hepatocytes
  RNA-seq results: BCHE expression: −0.32
Gene BCKDHB, hepatocytes
  RNA-seq results: BCKDHB expression: −0.10
